From patent US8952024B2, “Herbicidal pyrimidone derivatives” (E I du Pont de Nemours and Company, priority 2009, dated 2015)

How the values were obtained:
Experiment in all cases: Test B pre-/postemergence plant response
Type in all cases: in vivo
[1] = system: johnsongrass (Sorghum halepense); details: for Johnsongrass plant response rating (0 to 100 scale): 62 g ai/ha, 0 is no effect, 13 to 15 days
How it was run: (§1)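 Steps: sow seed in loam–sand soil and spray preemergence, or grow plants in peat-based medium to 1–4 leaves (2–18 cm) and spray postemergence; formulation is non-phytotoxic solvent plus surfactant; hold in greenhouse 13–15 days; score visually vs controls, 0 = no effect, 100 = complete control.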

[2] = system: downy bromegrass (Bromus tectorum); details: for Bromegrass, Downy plant response rating (0 to 100 scale): 62 g ai/ha, 0 is no effect, 13 to 15 days
How it was run: as §1

[3] = system: green foxtail (Setaria viridis); details: for Foxtail, Green plant response rating (0 to 100 scale): 62 g ai/ha, 0 is no effect, 13 to 15 days
How it was run: as §1

[4] = system: Surinam grass (Brachiaria decumbens); details: for Surinam Grass plant response rating (0 to 100 scale): 62 g ai/ha, 0 is no effect, 13 to 15 days
How it was run: as §1

[5] = system: giant foxtail (Setaria faberii); details: for Foxtail, Giant plant response rating (0 to 100 scale): 62 g ai/ha, 0 is no effect, 13 to 15 days
How it was run: as §1

[6] = system: blackgrass (Alopecurus myosuroides); details: for Blackgrass plant response rating (0 to 100 scale): 62 g ai/ha, 0 is no effect, 13 to 15 days
How it was run: as §1

[7] = system: goosegrass (Eleusine indica); details: for Goosegrass plant response rating (0 to 100 scale): 62 g ai/ha, 0 is no effect, 13 to 15 days
How it was run: as §1

wild oat (Avena fatua) = details: for Oat, Wild plant response rating (0 to 100 scale): 62 g ai/ha, 0 is no effect, 13 to 15 days
How it was run: as §1

[8] = system: yellow nutsedge (Cyperus esculentus); details: for Nutsedge, Yellow plant response rating (0 to 100 scale): 62 g ai/ha, 0 is no effect, 13 to 15 days
How it was run: as §1

corn (Zea mays) = details: for Corn plant response rating (0 to 100 scale): 62 g ai/ha, 0 is no effect, 13 to 15 days
How it was run: as §1

[9] = system: morningglory (Ipomoea coccinea); details: for Morningglory plant response rating (0 to 100 scale): 62 g ai/ha, 0 is no effect, 13 to 15 days
How it was run: as §1

[10] = system: velvetleaf (Abutilon theophrasti); details: for Velvetleaf plant response rating (0 to 100 scale): 62 g ai/ha, 0 is no effect, 13 to 15 days
How it was run: as §1

[11] = system: cocklebur (Xanthium strumarium); details: for Cocklebur plant response rating (0 to 100 scale): 62 g ai/ha, 0 is no effect, 13 to 15 days
How it was run: as §1

kochia (Kochia scoparia) = details: for Kochia plant response rating (0 to 100 scale): 62 g ai/ha, 0 is no effect, 13 to 15 days
How it was run: as §1

[12] = system: woolly cupgrass (Eriochloa villosa); details: for Cupgrass, Woolly plant response rating (0 to 100 scale): 62 g ai/ha, 0 is no effect, 13 to 15 days
How it was run: as §1

soybean (Glycine max) = details: for Soybean plant response rating (0 to 100 scale): 62 g ai/ha, 0 is no effect, 13 to 15 days
How it was run: as §1

[13] = system: large crabgrass (Digitaria sanguinalis); details: for Crabgrass, Large plant response rating (0 to 100 scale): 62 g ai/ha, 0 is no effect, 13 to 15 days
How it was run: as §1

[14] = 31 g ai/ha, postemergence, scale 0 to 100, 0 is no effect, 100 is complete control
[15] = postemergence, 100 is complete control
[16] = Postemergence, 250 g ai/ha, scale 0 to 100 (0 no effect, 100 complete control)
[17] = Postemergence, 125 g ai/ha, visual rating after 13 to 15 days, scale 0 (no effect) to 100 (complete control)

For O=C1CCCC(O)=C1C(=O)c1cnc(-c2ccccc2)n(C2CC2)c1=O [Compound 90], the “Plant response rating, Johnsongrass” value [1, 14] was 10, the “Johnsongrass plant response rating (0 to 100 scale)” value [1, 15] was 25 and the “Plant response rating, Johnsongrass” value [1, 16] was 65. The “Plant response rating, Bromegrass, Downy” value [2, 14] was 5, the “Bromegrass, Downy plant response rating (0 to 100 scale)” value [2, 15] was 5 and the “Plant response rating, Bromegrass, Downy” value [2, 17] was 10. The “Plant response rating, Bromegrass, Downy” value [2, 16] was 10, the “Plant response rating, Foxtail, Green” value [3, 14] was 65 and the “Foxtail, Green plant response rating (0 to 100 scale)” value [3, 15] was 65. The “Plant response rating, Foxtail, Green” value [3, 16] was 90, the “Plant response rating, Surinam Grass” value [4, 14] was 65 and the “Surinam Grass plant response rating (0 to 100 scale)” value [4, 15] was 65. The “Plant response rating, Surinam Grass” value [4, 16] was 75, the “Plant response rating, Foxtail, Giant” value [5, 14] was 65 and the “Foxtail, Giant plant response rating (0 to 100 scale)” value [5, 15] was 70. For the same compound, the “Plant response rating, Foxtail, Giant” value [5, 16] was 85, the “Plant response rating, Blackgrass” value [6, 14] was 5 and the “Blackgrass plant response rating (0 to 100 scale)” value [6, 15] was 5. The “Plant response rating, Blackgrass” value [6, 17] was 5, the “Plant response rating, Blackgrass” value [6, 16] was 30 and the “Plant response rating, Goosegrass” value [7, 14] was 60. For the same compound, the “Goosegrass plant response rating (0 to 100 scale)” value [7, 15] was 60, the “Plant response rating, Goosegrass” value [7, 16] was 75 and the “Plant response rating, Oat, Wild” value (wild oat (Avena fatua); [14]) was 0. The “Oat, Wild plant response rating (0 to 100 scale)” value (wild oat (Avena fatua); [15]) was 5, the “Plant response rating, Oat, Wild” value (wild oat (Avena fatua); [16]) was 20 and the “Plant response rating, Nutsedge, Yellow” value [8, 14] was 60. For the same compound, the “Nutsedge, Yellow plant response rating (0 to 100 scale)” value [8, 15] was 65, the “Plant response rating, Nutsedge, Yellow” value [8, 16] was 75 and the “Plant response rating, Corn” value (corn (Zea mays); [14]) was 15. The “Corn plant response rating (0 to 100 scale)” value (corn (Zea mays); [15]) was 25, the “Plant response rating, Corn” value (corn (Zea mays); [17]) was 45 and the “Plant response rating, Corn” value (corn (Zea mays); [16]) was 75. The “Plant response rating, Morningglory” value [9, 14] was 65, the “Morningglory plant response rating (0 to 100 scale)” value [9, 15] was 95 and the “Plant response rating, Morningglory” value [9, 16] was 100. The “Plant response rating, Velvetleaf” value [10, 14] was 85, the “Velvetleaf plant response rating (0 to 100 scale)” value [10, 15] was 98 and the “Plant response rating, Velvetleaf” value [10, 16] was 100. For the same compound, the “Plant response rating, Cocklebur” value [11, 14] was 75, the “Cocklebur plant response rating (0 to 100 scale)” value [11, 15] was 90 and the “Plant response rating, Cocklebur” value [11, 17] was 100. For the same compound, the “Plant response rating, Cocklebur” value [11, 16] was 100, the “Plant response rating, Kochia” value (kochia (Kochia scoparia); [14]) was 65 and the “Kochia plant response rating (0 to 100 scale)” value (kochia (Kochia scoparia); [15]) was 85. The “Plant response rating, Kochia” value (kochia (Kochia scoparia); [16]) was 98, the “Plant response rating, Cupgrass, Woolly” value [12, 14] was 45 and the “Cupgrass, Woolly plant response rating (0 to 100 scale)” value [12, 15] was 45. For the same compound, the “Plant response rating, Cupgrass, Woolly” value [12, 17] was 50, the “Plant response rating, Cupgrass, Woolly” value [12, 16] was 55 and the “Plant response rating, Soybean” value (soybean (Glycine max); [14]) was 98. The “Soybean plant response rating (0 to 100 scale)” value (soybean (Glycine max); [15]) was 98, the “Plant response rating, Soybean” value (soybean (Glycine max); [16]) was 100 and the “Plant response rating, Crabgrass, Large” value [13, 14] was 65. For the same compound, the “Crabgrass, Large plant response rating (0 to 100 scale)” value [13, 15] was 75, the “Plant response rating, Crabgrass, Large” value [13, 17] was 75 and the “Plant response rating, Crabgrass, Large” value [13, 16] was 80.
In the case of COCCOCCn1c(-c2ccccc2)ncc(C(=O)C2=C(O)CCCC2=O)c1=O [Compound 91], the “Plant response rating, Johnsongrass” value [1, 14] is reported as 65, the “Johnsongrass plant response rating (0 to 100 scale)” value [1, 15] is reported as 90 and the “Plant response rating, Johnsongrass” value [1, 16] is reported as 100. The “Plant response rating, Bromegrass, Downy” value [2, 14] was 0, the “Bromegrass, Downy plant response rating (0 to 100 scale)” value [2, 15] was 5 and the “Plant response rating, Bromegrass, Downy” value [2, 17] was 5. For the same compound, the “Plant response rating, Bromegrass, Downy” value [2, 16] was 30, the “Plant response rating, Foxtail, Green” value [3, 14] was 70 and the “Foxtail, Green plant response rating (0 to 100 scale)” value [3, 15] was 85. The “Plant response rating, Foxtail, Green” value [3, 16] was 98, the “Plant response rating, Surinam Grass” value [4, 14] was 85 and the “Surinam Grass plant response rating (0 to 100 scale)” value [4, 15] was 98. For the same compound, the “Plant response rating, Surinam Grass” value [4, 16] was 98, the “Plant response rating, Foxtail, Giant” value [5, 14] was 85 and the “Foxtail, Giant plant response rating (0 to 100 scale)” value [5, 15] was 98. The “Plant response rating, Foxtail, Giant” value [5, 16] was 98, the “Plant response rating, Blackgrass” value [6, 14] was 10 and the “Blackgrass plant response rating (0 to 100 scale)” value [6, 15] was 20. The “Plant response rating, Blackgrass” value [6, 17] was 30, the “Plant response rating, Blackgrass” value [6, 16] was 50 and the “Plant response rating, Goosegrass” value [7, 14] was 30. For the same compound, the “Goosegrass plant response rating (0 to 100 scale)” value [7, 15] was 75, the “Plant response rating, Goosegrass” value [7, 16] was 85 and the “Plant response rating, Oat, Wild” value (wild oat (Avena fatua); [14]) was 30. The “Oat, Wild plant response rating (0 to 100 scale)” value (wild oat (Avena fatua); [15]) was 30, the “Plant response rating, Oat, Wild” value (wild oat (Avena fatua); [16]) was 50 and the “Plant response rating, Nutsedge, Yellow” value [8, 14] was 50. The “Nutsedge, Yellow plant response rating (0 to 100 scale)” value [8, 15] was 65, the “Plant response rating, Nutsedge, Yellow” value [8, 16] was 75 and the “Plant response rating, Corn” value (corn (Zea mays); [14]) was 25. For the same compound, the “Corn plant response rating (0 to 100 scale)” value (corn (Zea mays); [15]) was 35, the “Plant response rating, Corn” value (corn (Zea mays); [17]) was 45 and the “Plant response rating, Corn” value (corn (Zea mays); [16]) was 60. The “Plant response rating, Morningglory” value [9, 14] was 75, the “Morningglory plant response rating (0 to 100 scale)” value [9, 15] was 90 and the “Plant response rating, Morningglory” value [9, 16] was 98. For the same compound, the “Plant response rating, Velvetleaf” value [10, 14] was 98, the “Velvetleaf plant response rating (0 to 100 scale)” value [10, 15] was 100 and the “Plant response rating, Velvetleaf” value [10, 16] was 100. The “Plant response rating, Cocklebur” value [11, 14] was 20, the “Cocklebur plant response rating (0 to 100 scale)” value [11, 15] was 65 and the “Plant response rating, Cocklebur” value [11, 17] was 95. For the same compound, the “Plant response rating, Cocklebur” value [11, 16] was 95, the “Plant response rating, Kochia” value (kochia (Kochia scoparia); [14]) was 20 and the “Kochia plant response rating (0 to 100 scale)” value (kochia (Kochia scoparia); [15]) was 80. For the same compound, the “Plant response rating, Kochia” value (kochia (Kochia scoparia); [16]) was 95, the “Plant response rating, Cupgrass, Woolly” value [12, 14] was 70 and the “Cupgrass, Woolly plant response rating (0 to 100 scale)” value [12, 15] was 85. The “Plant response rating, Cupgrass, Woolly” value [12, 17] was 98, the “Plant response rating, Cupgrass, Woolly” value [12, 16] was 98 and the “Plant response rating, Soybean” value (soybean (Glycine max); [14]) was 75. For the same compound, the “Soybean plant response rating (0 to 100 scale)” value (soybean (Glycine max); [15]) was 85, the “Plant response rating, Soybean” value (soybean (Glycine max); [16]) was 98 and the “Plant response rating, Crabgrass, Large” value [13, 14] was 80. The “Crabgrass, Large plant response rating (0 to 100 scale)” value [13, 15] was 95, the “Plant response rating, Crabgrass, Large” value [13, 17] was 98 and the “Plant response rating, Crabgrass, Large” value [13, 16] was 100.
